Tested on: RL95-2 cells
Assay: Colony forming / invasive growth assay in Matrigel
Type: cell-based, human
Description: To determine if PME-1 contributes to the more invasive and metastatic phenotypes, we performed a colony forming assay in matrigel.
The 3D On Top Matrigel Assay was completed in 24 well dishes. Briefly, the bottoms of 24 well dishes were coated with 50 μl BD Matrigel Basement Matrix Phenol Red Free (BD Biosciences cat. #356237) and allowed to solidify at 37° C. 10^5 cells were suspended in 250 μl chilled medium containing either 10 ng/ml of TGF-b or vehicle and allowed to settle at 37° C. for 30 minutes. Chilled medium containing 10% of Matrigel was added by pipetting gently down the sidewall of the well and incubated at 37° C. for ten days changing top medium every second day. Colony counts were performed on the tenth day; averages were taken from three fields of view using a 10× objective. Experiment was repeated three times.

## shRNA (SEQ ID NO: 2): lentiviral shRNA against PPME1, target sequence SEQ ID NO: 2 GCAGCGATTATTAGTAGAGTT, bp 289-309; hairpin SEQ ID NO: 8 (CCGGGCAGCGATTATTAGTAGAGTTCTCGAGAACTCTACTAATAATCGCTGCTTTTT; listed as Homo sapiens)
RL95-2, −TGF-β, compared to control cells
  colony number and size in Matrigel: fewer and smaller colonies
RL95-2 in Matrigel, 10 days, vs control cells
  decrease in colony formation: 50%
